According to the NIST ThermoML archive (doi:10.1021/acs.jced.8b00979):

Experiment: xn = mol fraction of the nth substance listed
Conditions: 100 kPa, Liquid; for viscosity: Capillary tube (Ostwald / Ubbelohde) method; for mass density: Vibrating tube method

CCC(C)CO (stereo not given) [2-methyl-1-butanol] + CCCC(C)O
Conditions	mass density [kg/m3]	viscosity [mPa·s]
288.15 K, x2 = 0	823.35	6.439
288.15 K, x2 = 0.1	822.37	6.154
288.15 K, x2 = 0.2	821.39	5.978
288.15 K, x2 = 0.301	820.41	5.83
288.15 K, x2 = 0.4	819.44	5.687
288.15 K, x2 = 0.5	818.45	5.556
288.15 K, x2 = 0.6	817.47	5.435
288.15 K, x2 = 0.7	816.47	5.323
288.15 K, x2 = 0.8	815.45	5.232
288.15 K, x2 = 0.9	814.4	5.154
293.15 K, x2 = 0	819.64	5.3
293.15 K, x2 = 0.1	818.65	5.034
293.15 K, x2 = 0.2	817.65	4.881
293.15 K, x2 = 0.301	816.65	4.762
293.15 K, x2 = 0.4	815.65	4.649
293.15 K, x2 = 0.5	814.64	4.548
293.15 K, x2 = 0.6	813.63	4.459
293.15 K, x2 = 0.7	812.6	4.377
293.15 K, x2 = 0.8	811.57	4.314
293.15 K, x2 = 0.9	810.5	4.251
298.15 K, x2 = 0	815.85	4.501
298.15 K, x2 = 0.1	814.84	4.249
298.15 K, x2 = 0.2	813.83	4.106
298.15 K, x2 = 0.301	812.81	3.99
298.15 K, x2 = 0.4	811.79	3.882
298.15 K, x2 = 0.5	810.75	3.787
298.15 K, x2 = 0.6	809.72	3.703
298.15 K, x2 = 0.7	808.68	3.625
298.15 K, x2 = 0.8	807.63	3.564
298.15 K, x2 = 0.9	806.54	3.496
303.15 K, x2 = 0	812.12	3.825
303.15 K, x2 = 0.1	811.09	3.585
303.15 K, x2 = 0.2	810.04	3.46
303.15 K, x2 = 0.301	808.98	3.355
303.15 K, x2 = 0.4	807.92	3.253
303.15 K, x2 = 0.5	806.85	3.163
303.15 K, x2 = 0.6	805.78	3.093
303.15 K, x2 = 0.7	804.7	3.028
303.15 K, x2 = 0.8	803.62	2.973
303.15 K, x2 = 0.9	802.49	2.91
308.15 K, x2 = 0	808.29	3.265
308.15 K, x2 = 0.1	807.23	3.047
308.15 K, x2 = 0.2	806.15	2.928
308.15 K, x2 = 0.301	805.06	2.83
308.15 K, x2 = 0.4	803.97	2.735
308.15 K, x2 = 0.5	802.86	2.653
308.15 K, x2 = 0.6	801.76	2.589
308.15 K, x2 = 0.7	800.64	2.53
308.15 K, x2 = 0.8	799.52	2.482
308.15 K, x2 = 0.9	798.36	2.422
313.15 K, x2 = 0	804.41	2.783
313.15 K, x2 = 0.1	803.33	2.586
313.15 K, x2 = 0.2	802.22	2.481
313.15 K, x2 = 0.301	801.08	2.398
313.15 K, x2 = 0.4	799.95	2.317
313.15 K, x2 = 0.5	798.81	2.248
313.15 K, x2 = 0.6	797.67	2.196
313.15 K, x2 = 0.7	796.51	2.151
313.15 K, x2 = 0.8	795.35	2.112
313.15 K, x2 = 0.9	794.14	2.062
318.15 K, x2 = 0	800.47	2.379
318.15 K, x2 = 0.1	799.36	2.199
318.15 K, x2 = 0.2	798.21	2.11
318.15 K, x2 = 0.301	797.03	2.037
318.15 K, x2 = 0.4	795.86	1.968
318.15 K, x2 = 0.5	794.68	1.91
318.15 K, x2 = 0.6	793.49	1.869
318.15 K, x2 = 0.7	792.29	1.835
318.15 K, x2 = 0.8	791.09	1.805
318.15 K, x2 = 0.9	789.84	1.764
323.15 K, x2 = 0	796.47	2.06
323.15 K, x2 = 0.1	795.33	1.898
323.15 K, x2 = 0.2	794.13	1.817
323.15 K, x2 = 0.301	792.91	1.754
323.15 K, x2 = 0.4	791.7	1.696
323.15 K, x2 = 0.5	790.47	1.649
323.15 K, x2 = 0.6	789.24	1.618
323.15 K, x2 = 0.7	788	1.59
323.15 K, x2 = 0.8	786.75	1.56
323.15 K, x2 = 0.9	785.47	1.525
328.15 K, x2 = 0	792.41	1.787
328.15 K, x2 = 0.1	791.24	1.649
328.15 K, x2 = 0.2	789.99	1.578
328.15 K, x2 = 0.301	788.72	1.525
328.15 K, x2 = 0.4	787.46	1.476
328.15 K, x2 = 0.5	786.19	1.44
328.15 K, x2 = 0.6	784.91	1.418
328.15 K, x2 = 0.7	783.62	1.396
328.15 K, x2 = 0.8	782.33	1.371
328.15 K, x2 = 0.9	781	1.346
